Broadly, the Kd is a measure of binding affinity in units of concentration. Lower therefore signals a tighter complex. What is called KD is a measure of binding affinity in units of concentration. Low readings indicate tighter binding, high ones weaker binding.

Three molecules from PMC11943294, “Identification of Key Active Constituents in Eucommia ulmoides Oliv. Leaves Against Parkinson’s Disease and the Alleviative Effects via 4E-BP1 Up-Regulation” (International Journal of Molecular Sciences, 2025) can be followed below.

The target of assay [1] is T1, 4E-BP1 (Homo sapiens, UniProt Q13541).
T1 construct: gene EIF4EBP1; amine-coupled to CM5 chip; PDB 2JGB used for docking only
As to the kind of experiment: SPR (BIAcore T200, CM5 chip, immobilized 4E-BP1, […] Langmuir). The format is binding. In general terms: SPR reads the build-up and loss of mass on a sensor chip optically.

Assay [2] has as its target T1, 4E-BP1. The description is as above. The conditions noted are these: 25 °C; 0-125 μM analyte; unreliable (discussion b43 prints another KD, 3.75 × 10^−5 M, and a negative deviation of the binding curve).

T1 sequence (Q13541 2-118): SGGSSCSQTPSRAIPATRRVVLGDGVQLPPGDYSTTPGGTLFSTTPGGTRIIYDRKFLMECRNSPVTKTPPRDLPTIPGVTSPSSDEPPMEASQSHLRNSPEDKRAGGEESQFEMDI

The molecule `O=C(/C=C/c1ccc(O)c(O)c1)O[C@@H]1C[C@](O)(C(=O)O)C[C@@H](O)[C@H]1O` [chlorogenic acid] yielded an equilibrium dissociation constant (Kd) on 4E-BP1 [1] of 55.6 µM. That is a double-digit micromolar value.

`O=C(/C=C/c1ccc(O)c(O)c1)O[C@H]1[C@H](O)C[C@](O)(C(=O)O)C[C@H]1O` [cryptochlorogenic acid] registered an equilibrium dissociation constant (KD) on 4E-BP1 [2] of 4.469 µM. In other words, the single-digit micromolar range.

`O=C(O)/C=C/c1ccc(O)c(O)c1` [caffeic acid] gave a dissociation constant (Kd) on 4E-BP1 [1] of 12.9 µM.
